These are literature values, as cited in patent US4925674A (hiMedics, Inc., priority 1988, dated 1990).

For the data set the following is noted: well known.

On to `CC1(C)S[C@@H]2[C@H](NC(=O)[C@H](N)c3ccc(O)cc3)C(=O)N2[C@H]1C(=O)O` [Amoxicillin, amoxicillin], for which the dose-related gastrointestinal upsets entry is “dose-related gastrointestinal upsets (epigastric distress, nausea, vomiting, and especially diarrhea) occur commonly”.
